Experimental data from PMC6332183, “α-Glucosidase Inhibitors from Vauquelinia corymbosa” (Molecules, 2015).
Like-named read-outs stand apart in the source and are kept apart here. Marks after values point to notes of the source that are not given here.

Columns and labels:
yeast α-glucosidase [1] = molecular target: T1, yeast α-glucosidase (Saccharomyces cerevisiae, UniProt P53341); experiment: yeast α-glucosidase inhibitory assay (pNPG, spectrophotocolorimetric); assay type: biochemical
Procedure: (§1) Aliquots of 0–10 μL of testing materials (triplicated) were incubated for 10 min with 20 μL of an enzyme solution of yeast α-glucosidase (Sigma-Aldrich, 0.4 units/mL in PBS) or mammalian α-glucosidase (Sigma-Aldrich, 40 mg). The mammalian enzyme was separated from rat intestinal acetone powder, which was hand homogenized using 1 mL of ice-cold PBS. After sonicating during ten min, the content was centrifuged at 6400 rpm for 10 min (Microfuge Qualitron, Inc., Albany, NY, USA). The supernatant was recovered and used for the in vitro assay.
(§2) After incubation with the enzymes 10 μL of p-nitrophenyl α-D-glucopyranoside (pNPG 5 mM and 10 mM in PSB, respectively) were added and then incubated for 20 min at 37 °C. Then, absorbances were determined in a BIO-RAD microplate reader model 680 at 405 nm.

[2] = tested on: rat small intestinal α-glucosidases; experiment: rat small intestinal α-glucosidase inhibitory assay (pNPG); assay type: biochemical
Procedure: as §1, §2

yeast α-glucosidase [3] = molecular target: T1, yeast α-glucosidase; experiment: kinetic analysis (Lineweaver-Burk) with yeast α-glucosidase; assay type: biochemical; settings: Lineweaver-Burk plot
Procedure: (§3) The mode of inhibition was determined by the Lineweaver-Burk plots. The inhibition constants were calculated using the following equation [36]: (2) v=Vmax×S/Km(1+[I]/Ki)+S(1+[I]/αKi) where v is the initial velocity in absence and presence of inhibitor; S and I are concentration of substrate and inhibitor, respectively; Vmax is the maximum velocity; Km is the Michaellis-Menten constant; Ki is the competitive inhibition constant and αKi is the uncompetitive inhibition constant. The kinetic data was analyzed using a computer program for nonlinear regressions (Graph Pad Prism 5.0, GraphPad Software, Inc., La Jolla, CA, USA).

[4] = tested on: small intestinal rat α-glucosidase; experiment: kinetic analysis (Lineweaver-Burk) with small intestinal rat α-glucosidase
Procedure: as §3

[5] = tested on: rat small intestinal α-glucosidases; set-up: method as in doi:10.1016/j.fshw.2014.11.003; settings: values taken from reference; ref [22]; cited from earlier work
[6] = mean ± SD of triplicate experiments, read-out: Rat Small Intestinal IC50

T1 sequence (P53341 whole entry): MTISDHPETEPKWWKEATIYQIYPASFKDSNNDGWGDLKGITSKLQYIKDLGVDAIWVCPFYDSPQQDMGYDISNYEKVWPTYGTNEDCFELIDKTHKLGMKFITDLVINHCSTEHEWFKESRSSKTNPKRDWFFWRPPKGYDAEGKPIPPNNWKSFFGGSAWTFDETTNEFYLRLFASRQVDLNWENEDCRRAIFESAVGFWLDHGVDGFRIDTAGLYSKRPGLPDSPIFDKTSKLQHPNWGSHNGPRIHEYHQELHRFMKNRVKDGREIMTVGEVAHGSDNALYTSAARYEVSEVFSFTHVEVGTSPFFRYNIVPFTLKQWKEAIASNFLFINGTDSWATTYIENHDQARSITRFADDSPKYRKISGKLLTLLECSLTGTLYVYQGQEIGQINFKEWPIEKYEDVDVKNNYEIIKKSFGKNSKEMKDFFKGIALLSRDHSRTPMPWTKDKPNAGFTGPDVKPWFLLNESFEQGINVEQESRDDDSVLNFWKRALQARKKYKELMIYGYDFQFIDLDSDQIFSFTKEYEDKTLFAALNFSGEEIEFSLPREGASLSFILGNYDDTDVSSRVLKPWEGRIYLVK

| Molecule | Rat Small Intestinal Maximum Inhibition (%) [2] | IC50 [2, 6] | Rat Small Intestinal % Inhibition obtained with 10.0 mM of inhibitor [2] | further results |
| --- | --- | --- | --- | --- |
| C[C@H]1O[C@H](O[C@H]2[C@H](O)[C@@H](O)[C@@H](O[C@H]3[C@H](O)[C@@H](O)C(O)O[C@@H]3CO)O[C@@H]2CO)[C@H](O)[C@@H](O)[C@@H]1N[C@H]1C=C(CO)[C@@H](O)[C@H](O)[C@H]1O (stereo partly shown) [Acarbose, acarbose, reference compound] | 80.2% | 100 ± 3 µM |  | Yeast Maximum Inhibition (%) (yeast α-glucosidase [1]): 89.7% |
| N#C[C@H](O[C@@H]1O[C@H](CO)[C@@H](O)[C@H](O)[C@H]1O)c1ccccc1 [Compound 1, prunasin] |  |  | 44.5 ^d % |  |
| Oc1cc(O)c2c(c1)O[C@@H](c1ccc(O)c(O)c1)[C@@H](O)C2 [Compound 2, (−)-epi-catechin] |  |  | 15.2 ^d % |  |
| O=c1c(O[C@@H]2O[C@H](CO)[C@H](O)[C@H](O)[C@H]2O)c(-c2ccc(O)c(O)c2)oc2cc(O)cc(O)c12 [Compound 3, hyperoside] | 65.1% | 1980 ± 150 µM |  |  |
| O=c1c(O[C@@H]2O[C@H](CO)[C@@H](O)[C@H](O)[C@H]2O)c(-c2ccc(O)c(O)c2)oc2cc(O)cc(O)c12 [Compound 4, isoquercetin] | 71.0% | 1630 ± 110 µM |  |  |
| O=C(OC[C@H]1O[C@@H](Oc2c(-c3ccc(O)c(O)c3)oc3cc(O)cc(O)c3c2=O)[C@H](O)[C@@H](O)[C@H]1O)c1ccccc1 [Compound 6, quercetin-3-O-(6′′-benzoyl)-β-galactoside] | 75.8% | 430 ± 30 µM |  | IC50 ([2]; read-out: IC50, mammalian enzyme): 437 µM; mode of inhibition, yeast α-glucosidase (yeast α-glucosidase [3]): mixed-type inhibitor; mode of inhibition, rat α-glucosidase ([4]; Lineweaver-Burk plot): mixed-type inhibitor; Ki ([4]; read-out: inhibition constant Ki, rat enzyme (abstract), mixed-type inhibition): 212 µM |
| CC(=O)c1ccc(O[C@@H]2O[C@H](CO)[C@@H](O)[C@H](O)[C@H]2O)cc1 [Compound 7, picein] | 52.6% | 10700 ± 960 µM |  |  |
| COc1ccc(O[C@@H]2O[C@H](CO)[C@@H](O)[C@H](O)[C@H]2O)cc1 [Compound 8, methylarbutin] |  |  | 39.3 ^d % |  |
| O=c1c(O)c(-c2ccc(O)c(O)c2)oc2cc(O)cc(O)c12 [Compound 9, quercetin] |  |  |  | IC50 [5]: 216 µM |
| quercitrin [Compound 5] | 59.7% | 3340 ± 380 µM |  | Yeast Maximum Inhibition (%) (yeast α-glucosidase [1]): 45.0% |
